Columns and labels:
Format in all cases: in vivo
[1] = test system: Diabrotica Balteata (Corn Root Worm); assay: Example B1: Diabrotica balteata, spray on maize sprouts; conditions: 96 h, application rate of 200 ppm, L2 larvae, 4 days after infestation, read-out: control in at least one of the two categories (mortality or growth inhibition)
Method: Maize sprouts placed onto an agar layer in 24-well microtiter plates were treated with aqueous test solutions prepared from 10′000 ppm DMSO stock solutions by spraying. After drying, the plates were infested with L2 larvae (6 to 10 per well). The samples were assessed for mortality and growth inhibition in comparison to untreated samples 4 days after infestation.

[2] = test system: Chilo suppressalis (Striped Rice Stemborer); assay: Example B4: Chilo suppressalis, artificial diet; conditions: 144 h, application rate of 200 ppm, L2 larvae, 6 days after infestation, read-out: control in at least one of the three categories (mortality, anti-feedant effect, or growth inhibition)
Method: 24-well microtiter plates with artificial diet were treated with aqueous test solutions prepared from 10′000 ppm DMSO stock solutions by pipetting. After drying, the plates were infested with L2 larvae (6-8 per well). The samples were assessed for mortality, anti-feeding effect, and growth inhibition in comparison to untreated samples 6 days after infestation. Control of Chilo suppressalis by a test sample is given when at least one of the categories mortality, anti-feedant effect, and growth inhibition is higher than the untreated sample.

[3] = test system: Plutella xylostella (Diamond Back Moth); assay: Example B5: Plutella xylostella, artificial diet, 24-well; conditions: 192 h, application rate of 200 ppm, eggs, 8 days after infestation, read-out: control in at least one of the two categories (mortality or growth inhibition)
Method: 24-well microtiter plates with artificial diet were treated with aqueous test solutions prepared from 10′000 ppm DMSO stock solutions by pipetting. After drying, Plutella eggs were pipetted through a plastic stencil onto a gel blotting paper and the plate was closed with it. The samples were assessed for mortality and growth inhibition in comparison to untreated samples 8 days after infestation.

[4] = test system: Spodoptera littoralis (Egyptian Cotton Leaf Worm); assay: Example B9: Spodoptera littoralis, spray on cotton leaf discs; conditions: foliar, 72 h, application rate of 200 ppm, L1 larvae, 3 days after infestation, read-out: control in at least one of the three categories (mortality, anti-feedant effect, or growth inhibition)
Method: Cotton leaf discs were placed onto agar in 24-well microtiter plates and sprayed with aqueous test solutions prepared from 10′000 ppm DMSO stock solutions. After drying the leaf discs were infested with five L1 larvae. The samples were assessed for mortality, anti-feeding effect, and growth inhibition in comparison to untreated samples 3 days after infestation. Control of Spodoptera littoralis by a test sample is given when at least one of the categories mortality, anti-feedant effect, and growth inhibition is higher than the untreated sample.

[5] = test system: Plutella xylostella (Diamondback Moth); assay: Example B13: Plutella xylostella, artificial diet, 96-well; conditions: 216 h, application rate of 500 ppm, eggs/L1 larvae, 9 days after infestation
Method: 96-well microtiter plates containing artificial diet were treated with aqueous test solutions, prepared from 10′000 ppm DMSO stock solutions, by a liquid handling robot. After drying, eggs (˜30 per well) were infested onto a netted lid which was suspended above the diet. The eggs hatch and L1 larvae move down to the diet. The samples were assessed for mortality 9 days after infestation.

CC(NC(=O)c1cc(OCC(F)(F)F)cc(C(F)(F)F)c1)c1nc(Br)nn1-c1ccc(C#N)cn1 (stereo not shown) [Compound P21, N-[1-[5-bromo-2-(5-cyano-2-pyridyl)-1,2,4-triazol-3-yl]ethyl]-3-(2,2,2-trifluoroethoxy)-5-(trifluoromethyl) benzamide]
≥ 80%: percent control (mortality or growth inhibition) at 200 ppm [1] | percent control (mortality, anti-feedant effect or growth inhibition) at 200 ppm [2] | percent control (mortality or growth inhibition) at 200 ppm [3] | percent control (mortality, anti-feedant effect or growth inhibition) at 200 ppm [4] | mortality at 500 ppm [5]

CC(NC(=O)c1cc(OCC(F)(F)F)cc(C(F)(F)F)c1)c1nc(Br)nn1-c1ncc(OCC(F)F)cn1 (stereo not shown) [Compound P19, N-[1-[5-bromo-2-[5-(2,2-difluoroethoxy)pyrimidin-2-yl]-1,2,4-triazol-3-yl]ethyl]-3-(2,2,2-trifluoroethoxy)-5-(trifluoromethyl) benzamide]
≥ 80%: percent control (mortality or growth inhibition) at 200 ppm [1] | percent control (mortality, anti-feedant effect or growth inhibition) at 200 ppm [2] | percent control (mortality or growth inhibition) at 200 ppm [3] | percent control (mortality, anti-feedant effect or growth inhibition) at 200 ppm [4] | mortality at 500 ppm [5]

CC(NC(=O)c1cc(OC(F)F)cc(C(F)(F)F)c1)c1nc(Br)nn1-c1ncc(OC(F)F)cn1 (stereo not shown) [Compound P3, N-[1-[5-bromo-2-[5-(difluoromethoxy)pyrimidin-2-yl]-1,2,4-triazol-3-yl]ethyl]-3-(difluoromethoxy)-5-(trifluoromethyl) benzamide]
≥ 80%: percent control (mortality or growth inhibition) at 200 ppm [1] | percent control (mortality, anti-feedant effect or growth inhibition) at 200 ppm [2] | percent control (mortality or growth inhibition) at 200 ppm [3] | percent control (mortality, anti-feedant effect or growth inhibition) at 200 ppm [4] | mortality at 500 ppm [5]

CC(NC(=O)c1cc(OC(F)F)cc(C(F)(F)F)c1)c1nc(Br)nn1-c1ncc(OCC(F)(F)F)cn1 (stereo not shown) [Compound P45]
≥ 80%: percent control (mortality or growth inhibition) at 200 ppm [1] | percent control (mortality, anti-feedant effect or growth inhibition) at 200 ppm [2] | percent control (mortality or growth inhibition) at 200 ppm [3] | percent control (mortality, anti-feedant effect or growth inhibition) at 200 ppm [4] | mortality at 500 ppm [5]

CO/N=C(\C)c1nc(C(C)NC(=O)c2cc(C(F)(F)F)cc(C(F)(F)F)c2)n(-c2ccc(C#N)cn2)n1 (stereo not shown) [Compound P56, N-[1-[2-(5-cyano-2-pyridyl)-5-[(E)-N-methoxy-C-methyl-carbonimidoyl]-1,2,4-triazol-3-yl]ethyl]-3,5-bis(trifluoromethyl) benzamide]
≥ 80%: mortality at 500 ppm [5]

CC(NC(=O)c1cc(OCC(F)F)cc(C(F)(F)F)c1)c1nc(Br)nn1-c1ncc(OCC(F)(F)F)cn1 (stereo not shown) [Compound P20, N-[1-[5-bromo-2-[5-(2,2,2-trifluoroethoxy)pyrimidin-2-yl]-1,2,4-triazol-3-yl]ethyl]-3-(2,2-difluoroethoxy)-5-(trifluoromethyl) benzamide]
≥ 80%: percent control (mortality, anti-feedant effect or growth inhibition) at 200 ppm [2] | percent control (mortality or growth inhibition) at 200 ppm [3] | percent control (mortality, anti-feedant effect or growth inhibition) at 200 ppm [4] | mortality at 500 ppm [5]

CC(NC(=O)c1cc(OCC(F)(F)F)cc(C(F)(F)F)c1)c1nc(Br)nn1-c1ccc(OCC(F)F)cn1 (stereo not shown) [Compound P53, N-[1-[5-bromo-2-[5-(2,2-difluoroethoxy)-2-pyridyl]-1,2,4-triazol-3-yl]ethyl]-3-(2,2,2-trifluoroethoxy)-5-(trifluoromethyl) benzamide]
≥ 80%: percent control (mortality, anti-feedant effect or growth inhibition) at 200 ppm [2] | percent control (mortality or growth inhibition) at 200 ppm [3] | mortality at 500 ppm [5]

CC(NC(=O)c1cc(Cl)cc(C(F)(F)F)c1)c1nc(Br)nn1-c1ncc(OC(F)F)cn1 (stereo not shown) [Compound P29, N-[1-[5-bromo-2-[5-(difluoromethoxy)pyrimidin-2-yl]-1,2,4-triazol-3-yl]ethyl]-3-chloro-5-(trifluoromethyl) benzamide]
≥ 80%: percent control (mortality or growth inhibition) at 200 ppm [1] | percent control (mortality, anti-feedant effect or growth inhibition) at 200 ppm [2] | percent control (mortality or growth inhibition) at 200 ppm [3] | percent control (mortality, anti-feedant effect or growth inhibition) at 200 ppm [4] | mortality at 500 ppm [5]

CC(NC(=O)c1cc(C(F)F)cc(C(F)(F)F)c1)c1nc(Br)nn1-c1ncc(OCC(F)(F)F)cn1 (stereo not shown) [Compound P42, N-[1-[5-bromo-2-[5-(2,2,2-trifluoroethoxy)pyrimidin-2-yl]-1,2,4-triazol-3-yl]ethyl]-3-(difluoromethyl)-5-(trifluoromethyl) benzamide]
≥ 80%: percent control (mortality or growth inhibition) at 200 ppm [1] | percent control (mortality, anti-feedant effect or growth inhibition) at 200 ppm [2] | percent control (mortality or growth inhibition) at 200 ppm [3] | percent control (mortality, anti-feedant effect or growth inhibition) at 200 ppm [4] | mortality at 500 ppm [5]

CC(NC(=O)c1cc(C(F)F)cc(C(F)(F)F)c1)c1nc(Br)nn1-c1ncc(OC(F)F)cn1 (stereo not shown) [Compound P28, N-[1-[5-bromo-2-[5-(difluoromethoxy)pyrimidin-2-yl]-1,2,4-triazol-3-yl]ethyl]-3-(difluoromethyl)-5-(trifluoromethyl) benzamide]
≥ 80%: percent control (mortality or growth inhibition) at 200 ppm [1] | percent control (mortality, anti-feedant effect or growth inhibition) at 200 ppm [2] | percent control (mortality or growth inhibition) at 200 ppm [3] | percent control (mortality, anti-feedant effect or growth inhibition) at 200 ppm [4] | mortality at 500 ppm [5]

CC(NC(=O)c1cc(C(F)(F)F)cc(C(F)(F)F)c1)c1nc(Br)nn1-c1ccc(OCC(F)(F)F)cn1 (stereo not shown) [Compound P17, N-[1-[5-bromo-2-[5-(2,2,2-trifluoroethoxy)-2-pyridyl]-1,2,4-triazol-3-yl]ethyl]-3,5-bis(trifluoromethyl) benzamide]
≥ 80%: percent control (mortality or growth inhibition) at 200 ppm [1] | percent control (mortality, anti-feedant effect or growth inhibition) at 200 ppm [2] | percent control (mortality or growth inhibition) at 200 ppm [3] | percent control (mortality, anti-feedant effect or growth inhibition) at 200 ppm [4] | mortality at 500 ppm [5]

CC(NC(=O)c1cc(OCC(F)F)cc(C(F)(F)F)c1)c1nc(Br)nn1-c1ccc(OCC(F)F)cn1 (stereo not shown) [Compound P36, N-[1-[5-bromo-2-[5-(2,2-difluoroethoxy)-2-pyridyl]-1,2,4-triazol-3-yl]ethyl]-3-(2,2-difluoroethoxy)-5-(trifluoromethyl) benzamide]
≥ 80%: percent control (mortality or growth inhibition) at 200 ppm [3] | percent control (mortality, anti-feedant effect or growth inhibition) at 200 ppm [4] | mortality at 500 ppm [5]

CC(NC(=O)c1cc(OC(F)(F)F)cc(C(F)(F)F)c1)c1nc(Br)nn1-c1ncc(OCC(F)F)cn1 (stereo not shown) [Compound P22, N-[1-[5-bromo-2-[5-(2,2-difluoroethoxy)pyrimidin-2-yl]-1,2,4-triazol-3-yl]ethyl]-3-(trifluoromethoxy)-5-(trifluoromethyl) benzamide]
≥ 80%: percent control (mortality or growth inhibition) at 200 ppm [1] | percent control (mortality, anti-feedant effect or growth inhibition) at 200 ppm [2] | percent control (mortality or growth inhibition) at 200 ppm [3] | percent control (mortality, anti-feedant effect or growth inhibition) at 200 ppm [4]

CC(NC(=O)c1cc(C(F)(F)F)cc(C(F)(F)F)c1)c1nc(-c2ncccn2)nn1-c1ccc(C#N)cn1 (stereo not shown) [Compound P32, N-[1-[2-(5-cyano-2-pyridyl)-5-pyrimidin-2-yl-1,2,4-triazol-3-yl]ethyl]-3,5-bis(trifluoromethyl) benzamide]
≥ 80%: percent control (mortality or growth inhibition) at 200 ppm [1] | percent control (mortality, anti-feedant effect or growth inhibition) at 200 ppm [2] | percent control (mortality or growth inhibition) at 200 ppm [3] | percent control (mortality, anti-feedant effect or growth inhibition) at 200 ppm [4]

CC(NC(=O)c1cc(SC(F)(F)F)cc(C(F)(F)F)c1)c1nc(Br)nn1-c1ccc(C#N)cn1 (stereo not shown) [Compound P5, N-[1-[5-bromo-2-(5-cyano-2-pyridyl)-1,2,4-triazol-3-yl]ethyl]-3-(trifluoromethyl)-5-(trifluoromethylsulfanyl)benzamide]
≥ 80%: percent control (mortality or growth inhibition) at 200 ppm [1] | percent control (mortality, anti-feedant effect or growth inhibition) at 200 ppm [2] | percent control (mortality or growth inhibition) at 200 ppm [3] | percent control (mortality, anti-feedant effect or growth inhibition) at 200 ppm [4]

CC(NC(=O)c1cc(OCC(F)(F)F)cc(C(F)(F)F)c1)c1nc(Br)nn1-c1ccc(OC(F)F)cn1 (stereo not shown) [Compound P14, N-[1-[5-bromo-2-[5-(difluoromethoxy)-2-pyridyl]-1,2,4-triazol-3-yl]ethyl]-3-(2,2,2-trifluoroethoxy)-5-(trifluoromethyl) benzamide]
≥ 80%: percent control (mortality or growth inhibition) at 200 ppm [1] | percent control (mortality, anti-feedant effect or growth inhibition) at 200 ppm [2] | percent control (mortality or growth inhibition) at 200 ppm [3] | percent control (mortality, anti-feedant effect or growth inhibition) at 200 ppm [4]
